8 molecules from patent publication US12371454B2, “Cyclic peptide compound having Kras inhibitory action” (priority 2019, dated 2025) can be followed below.

Starred links: 1 amine or outer side, 2 acyl side, 3 side chain; linkers in the order of their positions; H or OH if unused. Positions of bridges follow the written chain, without caps; N, C: chain ends. Non-standard residues stand in square brackets, D forms with d. Residues, ends and D or L forms follow the SMILES beside them. *: point of attachment. hPhe(3,5-F2-4-CF3) = N[C@@H](CCc1cc(F)c(C(F)(F)F)c(F)c1)C(=O)O; hPhe(3-Cl-4-CF3) = N[C@@H](CCc1ccc(C(F)(F)F)c(Cl)c1)C(=O)O; NMePhe(4-CF3) = CN[C@@H](Cc1ccc(C(F)(F)F)cc1)C(=O)O; NMePhe(4-Cl) = CN[C@@H](Cc1ccc(Cl)cc1)C(=O)O; NMePhe(4-Me) = CN[C@@H](Cc1ccc(C)cc1)C(=O)O; NMedβ3hAla = C[C@H](CC(=O)[*:2])N(C)[*:1]; Phe(3-Br) = N[C@@H](Cc1cccc(Br)c1)C(=O)O; Phe(2-OMe) = COc1ccccc1C[C@H](N)C(=O)O; Phe(3-I) = N[C@@H](Cc1cccc(I)c1)C(=O)O; Pro(4,4-F2) = O=C(O)[C@@H]1CC(F)(F)CN1; NMeCha = CN[C@@H](CC1CCCCC1)C(=O)O; NMeChg = CN[C@H](C(=O)O)C1CCCCC1; NMeI = CC[C@H](C)[C@H](NC)C(=O)O; NMeD = CN[C@@H](CC(=O)O)C(=O)O; NMeL = CN[C@@H](CC(C)C)C(=O)O; Chg = N[C@H](C(=O)O)C1CCCCC1; d(β3hP) = O=C(O)C[C@H]1CCCN1; NMeA = CN[C@@H](C)C(=O)O; NMeAib = CNC(C)(C)C(=O)O; Nle = CCCC[C@H](N)C(=O)O; Piperidide = C1CCN(*)CC1; Ac5c = NC1(C(=O)O)CCCC1; Aze = O=C(O)[C@@H]1CCN1; Ac4c = NC1(C(=O)O)CCC1; Sar = CNCC(=O)O

The target of this test is T1, Kras and SOS1 (biotin-tagged human Kras loaded with GDP, His-tagged human SOS1) (Homo sapiens, UniProt P01116, G12D).
T1 construct: made in house; host or cells: E. coli (stated for Kras only)
T1 sequence (P01116 1-188 isoform P01116-2 G12D): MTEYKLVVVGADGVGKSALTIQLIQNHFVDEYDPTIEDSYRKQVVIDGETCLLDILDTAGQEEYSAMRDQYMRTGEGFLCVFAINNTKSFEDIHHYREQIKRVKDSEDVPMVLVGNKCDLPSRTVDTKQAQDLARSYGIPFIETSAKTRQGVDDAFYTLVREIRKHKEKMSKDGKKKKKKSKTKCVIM
Briefly: Protein-protein interaction inhibition between Kras and SOS1 (KrasGl2D-SOS PPI) using AlphaScreen. In kind it is binding. The conditions noted are these: AlphaScreen; biotin-tagged human Kras loaded with GDP, His-tagged human SOS1; read-out: KRAS G12D-SOS PPI IC50. How it is done:
Protein-Protein Interaction Inhibition Between Kras and SOS1 (KrasGl2D-SOS PPI) Using AlphaScreen
Protein-protein interaction inhibition (PPI) between Kras and SOS1 was measured by energy transfer from nickel-conjugated donor beads to streptavidin-conjugated acceptor beads using biotin-tagged human Kras expressed in E. coli and loaded with GDP after purification and His-tagged human SOS1 enzyme. This measurement utilizes the phenomenon in which donor beads are irradiated with light at 680 nm, such that energy is transferred to acceptor beads through singlet oxygen and light at 520-620 nm is detected from the acceptor beads.
Inhibition of binding between K-ras and SOS1 is known to inhibit signaling downstream of Kras.
A general note: Bead proximity is the source of the signal in Alpha formats.
By IC50 is commonly meant the point on the concentration scale where inhibition reaches its midpoint. For the molecule `CC[C@H](C)[C@@H]1NC(=O)[C@H](CC(C)C)N(C)C(=O)C[C@H]2CCCN2C(=O)[C@H]([C@@H](C)CC)N(C)C(=O)C2(CCCC2)NC(=O)[C@@H]2CCCN2C(=O)[C@H](CCc2ccc(C(F)(F)F)c(Cl)c2)NC(=O)CN(C)C(=O)[C@H](Cc2ccc(C)cc2)N(C)C(=O)[C@@H]2CCN2C(=O)[C@H](C)N(C)C1=O` [Compound 2003] (cyclo([Ac5c][NMeI][d(β3hP)][NMeL]I[NMeA][Aze][NMePhe(4-Me)][Sar][hPhe(3-Cl-4-CF3)]P)), the IC50 stood at 8.6 nM. On to `CCCC[C@@H]1NC(=O)[C@H](Cc2cccc(Br)c2)NC(=O)CN(C)C(=O)[C@H](Cc2ccc(Cl)cc2)N(C)C(=O)[C@@H]2CCN2C(=O)[C@H](C)N(C)C(=O)[C@H]([C@@H](C)CC)NC(=O)[C@H](CC(C)C)N(C)C(=O)C[C@@H](C(=O)N2CCCCC2)N(C)C(=O)[C@H](CC(C)C)NC(=O)C(C)(C)N(C)C1=O` [Compound 1415] ([NMeL]I[NMeA][Aze][NMePhe(4-Cl)][Sar][Phe(3-Br)][Nle][NMeAib]L[NMeD]-Piperidide; lactam N-11), for which the 50% inhibitory concentration (IC50) worked out at 34 nM.

`CC[C@H](C)[C@@H]1NC(=O)[C@H](CC(C)C)N(C)C(=O)C[C@@H](C)N(C)C(=O)[C@H](C2CCCCC2)N(C)C(=O)C2(CCC2)NC(=O)[C@@H]2CC(F)(F)CN2C(=O)[C@H](CCc2ccc(C(F)(F)F)c(Cl)c2)NC(=O)CN(C)C(=O)[C@H](CC2CCCCC2)N(C)C(=O)CN(C)C(=O)CN(C)C1=O` [Compound 241] (cyclo([Ac4c][NMeChg][NMedβ3hAla][NMeL]I[Sar][Sar][NMeCha][Sar][hPhe(3-Cl-4-CF3)][Pro(4,4-F2)])): the IC50 turned out to be 18 nM. With `CC[C@H](C)[C@@H]1NC(=O)[C@H](CC(C)C)N(C)C(=O)C[C@@H](C(=O)N2CCCCC2)N(C)C(=O)[C@H](C2CCCCC2)N(C)C(=O)[C@H](C(C)C)NC(=O)[C@@H]2CCCN2C(=O)[C@H](CCc2ccc(C(F)(F)F)c(Cl)c2)NC(=O)CN(C)C(=O)[C@H](CC2CCCCC2)N(C)C(=O)CN(C)C(=O)CN(C)C1=O` [Compound 1157] ([NMeL]I[Sar][Sar][NMeCha][Sar][hPhe(3-Cl-4-CF3)]PV[NMeChg][NMeD]-Piperidide; lactam N-11) the figure was 1.6 nM.

Consider `CC[C@H](C)[C@@H]1NC(=O)[C@H](CC(C)C)N(C)C(=O)C[C@@H](C)N(C)C(=O)[C@H]([C@@H](C)CC)N(C)C(=O)C2(CCCC2)NC(=O)[C@@H]2CC(F)(F)CN2C(=O)[C@H](CCc2cc(F)c(C(F)(F)F)c(F)c2)NC(=O)CN(C)C(=O)[C@H](Cc2ccc(C(F)(F)F)cc2)N(C)C(=O)[C@@H]2CCN2C(=O)[C@H](C)N(C)C1=O` [Compound 863] (cyclo([Ac5c][NMeI][NMedβ3hAla][NMeL]I[NMeA][Aze][NMePhe(4-CF3)][Sar][hPhe(3,5-F2-4-CF3)][Pro(4,4-F2)])), for which the half-maximal inhibitory concentration (IC50) came to 2.5 nM. The result for `CC[C@H](C)[C@@H]1NC(=O)[C@H](CC(C)C)N(C)C(=O)C[C@@H](C(=O)N2CCCCC2)N(C)C(=O)[C@H](C2CCCCC2)NC(=O)C2(CCCC2)NC(=O)[C@@H]2CCCN2C(=O)[C@H](CCc2ccc(C(F)(F)F)c(Cl)c2)NC(=O)CN(C)C(=O)[C@H](CC2CCCCC2)N(C)C(=O)CN(C)C(=O)CN(C)C1=O` [Compound 1354] ([NMeL]I[Sar][Sar][NMeCha][Sar][hPhe(3-Cl-4-CF3)]P[Ac5c][Chg][NMeD]-Piperidide; lactam N-11) reads 7.7 nM. With `CC[C@H](C)[C@@H]1NC(=O)[C@H](CC(C)C)N(C)C(=O)C[C@@H](C(=O)N2CCCCC2)N(C)C(=O)[C@H](CC(C)C)NC(=O)C(C)(C)N(C)C(=O)[C@H](Cc2ccccc2OC)NC(=O)[C@H](Cc2cccc(I)c2)NC(=O)CN(C)C(=O)[C@H](Cc2ccc(C)cc2)N(C)C(=O)[C@@H]2CCN2C(=O)CN(C)C1=O` [Compound 459] ([NMeL]I[Sar][Aze][NMePhe(4-Me)][Sar][Phe(3-I)][Phe(2-OMe)][NMeAib]L[NMeD]-Piperidide; lactam N-11) the figure was 9.5 nM.

With `CC[C@H](C)[C@@H]1NC(=O)[C@H](CC(C)C)N(C)C(=O)C[C@@H](C(=O)N2CCCCC2)N(C)C(=O)[C@H](C2CCCCC2)N(C)C(=O)C2(CCCC2)NC(=O)[C@@H]2CCCN2C(=O)[C@H](CCc2ccc(C(F)(F)F)c(Cl)c2)NC(=O)[C@H](C)N(C)C(=O)[C@H](CC2CCCCC2)N(C)C(=O)CN(C)C(=O)CN(C)C1=O` [Compound 722] ([NMeL]I[Sar][Sar][NMeCha][NMeA][hPhe(3-Cl-4-CF3)]P[Ac5c][NMeChg][NMeD]-Piperidide; lactam N-11), the IC50 turned out to be 420 nM.
